In patent US6936600B2, “Sorbitol dehrydrogenase inhibitors” (Pfizer Inc, priority 1999, dated 2005):

Row | melting point | SMILES
1 | 217 to 219 °C (dec.) | C[C@@H](O)c1nccc(N2CCc3c(c(=O)n(-c4cnc5ccccc5n4)n3C)C2)n1 [Example 75, (R)-5-[2-(1-Hydroxy-ethyl)-pyrimidin-4-yl]-1-methyl-2-quinoxalin-2-yl-1,2,4,5,6,7-hexahydro-pyrazolo[4,3-c]pyridin-3-one]
2 | 187 to 188 °C | COc1nc(OC)nc(N2[C@H](C)CN(c3ccnc([C@@H](C)O)n3)C[C@@H]2C)n1 [Example 214, 1R-{4-[4-(4,6-Dimethoxy-[1,3,5]triazin-2-yl)-3R,5S-dimethyl-piperazin-1-yl]-pyrimidin-2-yl}-ethanol]
